For 35 compounds, IC50 and Activity results are on record in ChEMBL document CHEMBL3046653, “Synthesis and evaluation of DPPH and anti-inflammatory activities of 2,6-bisbenzylidenecyclohexanone and pyrazoline derivatives” (Med Chem Res, 2012).

Bounds are passed on as bounds.

A short description of data set [1]: Antioxidant activity assessed as DPPH scavenging activity after 30 min by spectrophotometry. The data set is classed as functional.
Data set [2] relates to RAW264.7. The data set can be described thus: Anti-inflammatory activity in Mus musculus (mouse) RAW264.7 cells assessed as inhibition of IFN-gamma/LPS-induced nitric oxide production after 17 to 20 hr by Griess assay. The class given is functional, cell-based.
Data set [3] deals with RAW264.7. Kind of data set: Cytotoxicity against Mus musculus (mouse) RAW264.7 cells at IC50 for NO production by MTT assay. The data set is classed as cell-based.
The test system of data set [4] is RAW264.7. Kind of data set: Cytotoxicity against Mus musculus (mouse) RAW264.7 cells at >50 uM by MTT assay. The data set is classed as cell-based.
The test system of data set [5] is RAW264.7. The data set can be described thus: Cytotoxicity against Mus musculus (mouse) RAW264.7 cells at 25 uM by MTT assay. The class given is cell-based. Conditions: raw264.7, 25 µM.

On to `O=C1/C(=C/c2ccc(O)c(O)c2)CCC/C1=C\c1ccc(O)c(O)c1`, for which the figures for the IC50 (in data set [1]; in the data set on RAW264.7 [2]) were 13.3 µM and 9.43 µM, respectively.

In the case of `COc1cc(/C=C2\CC/C(=C\c3ccc(OC(C)=O)c(OC)c3)C2=O)ccc1OC(C)=O`, the 50% inhibitory concentration (IC50) in data set [1] was no less than 100 µM; in the data set with RAW264.7 [2] it was no less than 50 µM.

As to `CC(=O)Oc1ccc(/C=C2\CC/C(=C\c3ccc(OC(C)=O)c(OC(C)=O)c3)C2=O)cc1OC(C)=O`, the 50% inhibitory concentration (IC50) in data set [1] is no less than 100 µM; with RAW264.7 [2], no less than 50 µM.

On to `COc1cc(/C=C2\CCC/C(=C\c3ccc(OC(C)=O)c(OC)c3)C2=O)ccc1OC(C)=O`, for which the half-inhibitory concentration (IC50) was no less than 100 µM in data set [1] and 13.3 µM in the data set with RAW264.7 [2].

As to `CCC(=O)Oc1ccc(/C=C2\CCC/C(=C\c3ccc(OC(=O)CC)c(OC)c3)C2=O)cc1OC`, the concentration for half-maximal inhibition (IC50) in data set [1] was no less than 100 µM; in the data set with RAW264.7 [2], 8.02 µM.

Consider `CC(=O)Oc1ccc(/C=C2\CCC/C(=C\c3ccc(OC(C)=O)c(OC(C)=O)c3)C2=O)cc1OC(C)=O`, for which the concentration for half-maximal inhibition (IC50) in data set [1] was no less than 100 µM; in the data set on RAW264.7 [2], 6.84 µM.

For the compound `COc1cc(/C=C2\CCCC3C2=NNC3c2ccc(O)c(OC)c2)ccc1O` (stereo not drawn), the Activity entry was “Non-toxic” in the data set with RAW264.7 [3] and “Toxic” in the data set on RAW264.7 [4]. In addition, the 50% inhibitory concentration (IC50) with RAW264.7 [2] was 12.2 µM.

As for `Oc1ccc(/C=C2\CCCC3C2=NNC3c2ccc(O)cc2)cc1` (stereo not drawn), the half-maximal inhibitory concentration (IC50) in the data set on RAW264.7 [2] amounted to 26.9 µM.

Regarding `COc1ccc(/C=C2\CCCC3C2=NNC3c2ccc(OC)c(OC)c2)cc1OC` (stereo not drawn), the half-inhibitory concentration (IC50) in the data set with RAW264.7 [2] turned out to be 38.7 µM.

Regarding `O=[N+]([O-])c1ccc(/C=C2\CCCC3C2=NNC3c2ccc([N+](=O)[O-])cc2)cc1` (stereo not drawn), the concentration for half-maximal inhibition (IC50) in the data set with RAW264.7 [2] is no less than 50 µM.

As to `Fc1ccc(/C=C2\CCCC3C2=NNC3c2ccc(F)cc2)cc1` (stereo not drawn), the 50% inhibitory concentration (IC50) in the data set with RAW264.7 [2] was no less than 50 µM.

For `COc1cc(/C=C2\CCCC3C2=NN(C(C)=O)C3c2ccc(OC(C)=O)c(OC)c2)ccc1OC(C)=O` (stereo not drawn), in the data set with RAW264.7 [2], the concentration for half-maximal inhibition (IC50) is no less than 50 µM.

For the compound `COc1ccc(/C=C2\CCCC3C2=NN(C(C)=O)C3c2ccc(OC)c(OC)c2)cc1OC` (stereo not drawn), the IC50 with RAW264.7 [2] is no less than 50 µM.

For `CC(=O)N1N=C2/C(=C/c3ccc([N+](=O)[O-])cc3)CCCC2C1c1ccc([N+](=O)[O-])cc1` (stereo not drawn), the IC50 in the data set with RAW264.7 [2] was no less than 50 µM.

Consider `CC(=O)N1N=C2/C(=C/c3ccc(F)cc3)CCCC2C1c1ccc(F)cc1` (stereo not drawn), for which the IC50 in the data set with RAW264.7 [2] is no less than 50 µM.

On to `COc1cc(/C=C2\CCCC3C2=NN(C(=O)c2ccccc2)C3c2ccc(O)c(OC)c2)ccc1O` (stereo not drawn), for which the IC50 with RAW264.7 [2] came out at 47.1 µM.

As to `COc1ccc(/C=C2\CCCC3C2=NN(C(=O)c2ccccc2)C3c2ccc(OC)c(OC)c2)cc1OC` (stereo not drawn), the IC50 with RAW264.7 [2] is 25.1 µM.

Take `O=C(c1ccccc1)N1N=C2/C(=C/c3ccc([N+](=O)[O-])cc3)CCCC2C1c1ccc([N+](=O)[O-])cc1` (stereo not drawn): the IC50 in the data set on RAW264.7 [2] is no less than 50 µM.

For `O=C(c1ccccc1)N1N=C2/C(=C/c3ccc(F)cc3)CCCC2C1c1ccc(F)cc1` (stereo not drawn), the IC50 with RAW264.7 [2] is no less than 50 µM.

Regarding `O=C1/C(=C/c2cccc(O)c2)CC/C1=C\c1cccc(O)c1`, the half-inhibitory concentration (IC50) was no less than 100 µM in data set [1] and no less than 50 µM with RAW264.7 [2].

Regarding `O=C1/C(=C/c2ccc(O)cc2O)CC/C1=C\c1ccc(O)cc1O`, the results for the half-inhibitory concentration (IC50) (in data set [1]; with RAW264.7 [2]) were 50.6 µM and no less than 50 µM, respectively.

For the compound `O=C1/C(=C/c2cccc(O)c2O)CC/C1=C\c1cccc(O)c1O`, the IC50 in data set [1] was 20.7 µM; in the data set with RAW264.7 [2], 7.94 µM.

Consider `O=C1/C(=C/c2cccc(O)c2)CCC/C1=C\c1cccc(O)c1`, for which the Activity entry in the data set on RAW264.7 [3] is “Non-toxic”; in the data set on RAW264.7 [5], “Toxic”; with RAW264.7 [4] it was “Toxic”. Besides, the IC50 in data set [1] is no less than 100 µM; in the data set with RAW264.7 [2], 6.09 µM.

Take `COc1cc(/C=C2\CC/C(=C\c3ccc(O)c(OC)c3)C2=O)ccc1O`: the Activity result in the data set on RAW264.7 [3] is “Non-toxic”; in the data set on RAW264.7 [4], “Toxic”. Moreover, the IC50 in data set [1] was found to be 75 µM; in the data set with RAW264.7 [2], 13.9 µM.

`O=C1/C(=C/c2ccc(O)c(O)c2)CC/C1=C\c1ccc(O)c(O)c1`: the IC50 in data set [1] was determined as 14.8 µM; with RAW264.7 [2] it was 20.5 µM.

On to `O=C1/C(=C/c2ccc(O)cc2)CC/C1=C\c1ccc(O)cc1`, for which the figures for the 50% inhibitory concentration (IC50) (in data set [1]; in the data set with RAW264.7 [2]) were no less than 100 µM and no less than 50 µM, respectively.

As for `COc1ccc(/C=C2\CCC/C(=C\c3ccc(OC)c(OC)c3)C2=O)cc1OC`, the IC50 is no less than 100 µM in data set [1] and 19.8 µM in the data set on RAW264.7 [2].

For `O=C1/C(=C/c2ccc([N+](=O)[O-])cc2)CCC/C1=C\c1ccc([N+](=O)[O-])cc1`, the figures for the half-maximal inhibitory concentration (IC50) (in data set [1]; in the data set with RAW264.7 [2]) were no less than 100 µM and 29.4 µM, respectively.

With `O=C1/C(=C/c2ccc(F)cc2)CC/C1=C\c1ccc(F)cc1`, the concentration for half-maximal inhibition (IC50) in data set [1] was no less than 100 µM; in the data set with RAW264.7 [2] it was no less than 50 µM.

Regarding `O=C1/C(=C/c2ccc(F)cc2)CCC/C1=C\c1ccc(F)cc1`, the IC50 in data set [1] was no less than 100 µM; in the data set with RAW264.7 [2], no less than 50 µM.

Turning to `O=C1/C(=C/c2ccc(O)cc2)CCC/C1=C\c1ccc(O)cc1`, the 50% inhibitory concentration (IC50) is no less than 100 µM in data set [1] and 41.6 µM in the data set on RAW264.7 [2].

Regarding `COc1cc(/C=C/C(=O)CC(=O)/C=C/c2ccc(O)c(OC)c2)ccc1O` [CURCUMIN], the IC50 with RAW264.7 [2] is 21.6 µM.

For the compound `COc1cc(/C=C2\CCC/C(=C\c3ccc(O)c(OC)c3)C2=O)ccc1O` [CYCLOVALONE], the Activity result was “Non-toxic” with RAW264.7 [3] and “Toxic” with RAW264.7 [4]. Moreover, the 50% inhibitory concentration (IC50) worked out at 51.9 µM in data set [1] and 6.68 µM in the data set with RAW264.7 [2].

On to `COC(=O)[C@@H](N)CCCNC(=N)N[N+](=O)[O-]` [L-NAME], for which the IC50 with RAW264.7 [2] worked out at 26.2 µM.

In the case of `O=c1c(O)c(-c2ccc(O)c(O)c2)oc2cc(O)cc(O)c12` [QUERCETIN], in data set [1], the concentration for half-maximal inhibition (IC50) stood at 21.5 µM.
